Target: T1, Glucocorticoid receptor (Homo sapiens, UniProt P04150)
T1 sequence (P04150 whole entry): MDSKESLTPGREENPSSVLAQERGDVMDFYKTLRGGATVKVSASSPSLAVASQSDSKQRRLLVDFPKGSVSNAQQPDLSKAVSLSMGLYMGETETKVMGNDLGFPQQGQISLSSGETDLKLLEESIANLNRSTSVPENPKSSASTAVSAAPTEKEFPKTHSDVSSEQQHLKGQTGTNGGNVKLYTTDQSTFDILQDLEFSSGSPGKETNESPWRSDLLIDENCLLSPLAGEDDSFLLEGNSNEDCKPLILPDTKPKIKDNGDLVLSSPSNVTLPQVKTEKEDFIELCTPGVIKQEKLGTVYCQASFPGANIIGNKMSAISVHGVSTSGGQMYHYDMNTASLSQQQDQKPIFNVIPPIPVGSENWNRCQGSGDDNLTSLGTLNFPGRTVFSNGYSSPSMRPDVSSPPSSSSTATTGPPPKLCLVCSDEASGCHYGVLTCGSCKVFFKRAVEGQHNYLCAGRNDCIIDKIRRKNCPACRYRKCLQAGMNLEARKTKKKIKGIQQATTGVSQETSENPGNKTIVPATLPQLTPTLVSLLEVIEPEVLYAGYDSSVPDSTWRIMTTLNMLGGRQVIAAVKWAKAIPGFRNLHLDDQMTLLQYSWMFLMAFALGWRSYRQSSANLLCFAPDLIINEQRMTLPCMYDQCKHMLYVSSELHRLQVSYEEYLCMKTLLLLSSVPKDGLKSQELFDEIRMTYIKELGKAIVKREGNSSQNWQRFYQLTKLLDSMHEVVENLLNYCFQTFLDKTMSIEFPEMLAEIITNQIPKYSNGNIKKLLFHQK
Assay: GRE Antagonist Assay
Description: The generated cell line allows for identification of compounds showing antagonist activity at the human glucocorticoid receptor (GR) via reduction of LacZ gene expression. Dexamethasone-activated GR binds to the Glucocorticoid Response Element (GRE) in the promoter of the LacZ gene and transcription is initiated.

IC50: 158 nM
Structure (SMILES): CC(C)[C@H](NC(=O)C(C)(F)F)[C@H](Oc1ccc2c(cnn2-c2ccc(=O)n(C)c2)c1)c1ccccc1 [US10196374, Example 1]

Reference: BindingDB's records for patent US10196374 (Astrazeneca, 2019)
